Measurements published in US20150328269A1, “PREPARATION FOR RADIO PROTECTION” (LYCORED LTD., priority 2012, published 2015).

Key:
[1] = Radiation-induced oxidation of liposomes (MDA/TBA read-out); assay type: biochemical, hen; conditions: for Radioprotection in %: 500 Gy Co60 γ-quanta, 84.8 Gy/min, liposomes 2 mg/ml phospholipids in saline solution
Text: (§1) The biologic membranes play the most important role in cell vital activity. The high sensibility of lipids and phospholipids, which are the main structural components of biomembranes, as to oxidative stress, including those caused by irradiation, is the consequence of the high content of unsaturated fatty acids. The liposomes being obtained from phospholipids of hen's egg yolk were used as a model of the biomembranes. The phospholipids are able to form liposome emulsions in water; this allows studying in model experiments the radioprotective and antioxidant properties of various water-soluble and water-insoluble compounds, including water-insoluble phytoene as well. To obtain the liposomes, 20 mg of the phospholipids, being dissolved in chloroform, were entered into a conical vial and dried in vacuum. Then 2 ml of a saline solution containing 0.15 M NaCl, 0.005 M KCl, 0.0012 M KH2PO4, 0.0012 M Na2HPO4 at pH 7.4 was added to the dried sample. The mixture has been shaken, input into an ultrasonic bath for 30 seconds, and then the total volume was increased up to 10 ml, stirred, treated with ultrasound, and as the result the liposome suspension with the phospholipid concentration of 2 mg/ml was received. […] Optical density of the colored TBA products was calculated by the optical density data, considering the molar extinction coefficient at 532 nm equals to 156,000 mol^-1·cm^-1. […] Taking as 100% the level of the MDA increment at the induced liposome oxidation above spontaneous phospholipids oxidation in the absence of phytoene, and taking into account the fact that the presence of phytoene in the liposomes can modify the level of the spontaneous oxidation, the protection efficacy (PE)OK in the […] of the induced liposome oxidation was calculated by the formula: (PE)OK=(CPOK-CPK)·100/(COK-CK), in which CPK , CPOK are the MDA concentrations in the liposomes with phytoene before and after the liposome induced oxidation respectively; CK, COK (are the MDA concentrations in the control liposomes (without phytoene) before and after the liposome induced oxidation respectively.

[2] = Fe++-induced oxidation of liposomes (MDA/TBA read-out); assay type: biochemical, hen; conditions: for Protection against Fe++-induced oxidation in %: 50 μM Fe++, 30 minutes, room temperature
Text: as §1

Structure (SMILES): CC(C)=CCC/C(C)=C/CC/C(C)=C/CC/C(C)=C/C=C/C=C(\C)CC/C=C(\C)CC/C=C(\C)CCC=C(C)C (stereo in doubt) [phytoene]
- Radioprotection in % ([1]; phytoene:phospholipid 1:10): 62.0 ± 10.4%
- Radioprotection in % ([1]; phytoene:phospholipid 1:100): 37.2 ± 5.2%
- Protection of liposomes against oxidative stress induced by the radiation (in words) ([1]; summary statement): protects the liposomes against the oxidative stress
- Protection against Fe++-induced oxidation in % ([2]; phytoene:phospholipid 1:10): 50.9 ± 6.6%
- Protection against Fe++-induced oxidation in % ([2]; phytoene:phospholipid 1:100): 18.7 ± 11.5%
- Protection of liposomes against oxidative stress induced with ferrous iron ions (in words) ([2]; summary statement): protects the liposomes against the oxidative stress
